From US20230286983A1 (4E Therapeutics, Inc., priority 2020, published 2023)

How the values were obtained:
[1] = molecular target: MNK1 (Homo sapiens, UniProt Q9BUB5); experiment: MNK1 substrate phosphorylation assay; assay type: biochemical; settings: recombinant human kinase
[2] = system: P-gp (human MDR1, ABCB1); experiment: MDCK-MDR1 permeability (blood brain barrier permeability); assay type: in vitro ADME, Canine; settings: dog; for efflux ratio at 5 μM: MDCK-MDR1, 5 μM, read-out: Efflux ratio (ratio B-A/A-B); for Papp A→B at 5 μM: MDCK-MDR1, Apical to basolateral transport; for Papp A→B at 5 μM / Papp B→A at 5 μM: average of two experiments; for Papp B→A at 5 μM: MDCK-MDR1, Basolateral to apical transport
[3] = system: eIF4E phosphorylation at Serine 209 in the human osteosarcoma (U2OS) cell line; experiment: eIF4E phosphorylation in U2OS cells (fluorescent plate reader); assay type: cell-based; settings: eIF4E phosphorylation at Serine 209, 2 hours exposure; for IC50: Homo sapiens, U2OS
Method: The ability of MNK inhibitors described herein to inhibit eIF4E phosphorylation at Serine 209 in the human osteosarcoma (U2OS) cell line was tested by exposing the cells to compound for 2 hours and then measuring eIF4E phosphorylation with a phosphorylation-specific antibody in a fluorescent plate reader.

[4] = molecular target: Cdc2-like kinase 4 (CLK4) (Homo sapiens, UniProt Q9HAZ1); experiment: Off-target kinase screen CLK4; assay type: biochemical; settings: 1 μM test compound
Cdc2-like kinase 4 (CLK4), sequence (Q9HAZ1 whole entry): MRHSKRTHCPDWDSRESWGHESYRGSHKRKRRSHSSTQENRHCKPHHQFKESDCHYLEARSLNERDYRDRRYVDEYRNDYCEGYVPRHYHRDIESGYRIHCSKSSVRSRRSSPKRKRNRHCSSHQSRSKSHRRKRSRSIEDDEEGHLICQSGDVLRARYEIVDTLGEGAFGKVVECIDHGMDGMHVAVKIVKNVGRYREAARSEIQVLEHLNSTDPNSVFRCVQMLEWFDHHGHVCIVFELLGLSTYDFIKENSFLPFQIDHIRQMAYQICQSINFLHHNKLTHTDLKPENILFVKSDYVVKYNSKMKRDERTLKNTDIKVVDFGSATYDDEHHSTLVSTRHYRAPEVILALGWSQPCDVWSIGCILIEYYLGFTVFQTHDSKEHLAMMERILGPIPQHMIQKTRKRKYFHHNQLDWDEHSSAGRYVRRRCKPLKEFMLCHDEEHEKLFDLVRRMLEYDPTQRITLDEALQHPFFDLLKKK
From the text: (§1) These kinases were chosen because they are the only known off-target hit kinases for eFT508. These assays were done using recombinant human kinases (CLK4, DRAK1 and PKG2) in a substrate phosphorylation assay. % activity remaining after MNK inhibitor treatment is indicated in Table 12.

[5] = system: eIF4E phosphorylation at Serine 209 in the human embryonic kidney (HEK) 293 cell line; experiment: eIF4E phosphorylation in HEK 293 cells (fluorescent plate reader); assay type: cell-based; settings: eIF4E phosphorylation at Serine 209, 2 hours exposure; for IC50: Homo sapiens
Method: The ability of MNK inhibitors described herein to inhibit eIF4E phosphorylation at Serine 209 in the human embryonic kidney (HEK) 293 cell line was tested by exposing the cells to compound for 2 hours and then measuring eIF4E phosphorylation with a phosphorylation-specific antibody in a fluorescent plate reader. These experiments were done with HEK-293 cells plated on 96 well plates. Following treatment, cells were fixed with ice cold methanol for 10 min and then washed in 1× phosphate buffered saline (PBS) and the permeabilized with 0.02% Triton X-100 in 10% normal goat serum made up in PBS. Primary antibody was applied overnight at a concentration dilution of 1:2000 (p-eIF4E antibody from Cell Signaling ab76256). Following washing, cells were then exposed to secondary antibody conjugated to alexa-fluor 488 and then visualized on a Syngergy HTX plate reader. Fluorescence for p-eIF4E was measured and normalized to total DAPI fluorescence to determine the percentage of eIF4E phosphorylation in each well. Data were plotted in Graphpad Prism V8 to determine concentration-response effects and calculate IC50 values.

[6] = molecular target: MNK2 (Homo sapiens, UniProt Q9HBH9); experiment: MNK2 substrate phosphorylation assay; assay type: biochemical; settings: recombinant human kinase
MNK2, sequence (Q9HBH9 whole entry): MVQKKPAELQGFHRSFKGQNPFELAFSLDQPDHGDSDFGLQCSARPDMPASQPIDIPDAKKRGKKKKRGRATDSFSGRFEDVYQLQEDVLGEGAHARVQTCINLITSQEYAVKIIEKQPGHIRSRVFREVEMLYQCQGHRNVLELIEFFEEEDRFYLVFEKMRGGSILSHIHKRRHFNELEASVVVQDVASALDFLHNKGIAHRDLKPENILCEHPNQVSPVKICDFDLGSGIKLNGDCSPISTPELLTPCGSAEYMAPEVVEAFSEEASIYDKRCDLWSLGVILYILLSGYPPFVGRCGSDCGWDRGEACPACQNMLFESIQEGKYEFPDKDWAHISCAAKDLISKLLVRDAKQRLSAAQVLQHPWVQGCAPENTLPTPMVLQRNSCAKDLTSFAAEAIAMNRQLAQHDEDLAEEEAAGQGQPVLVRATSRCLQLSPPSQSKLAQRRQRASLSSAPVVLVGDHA

[7] = system: eIF4E phosphorylation at Serine 209 in Karpas 299; experiment: eIF4E phosphorylation in Karpas 299 cells (sandwich ELISA); assay type: cell-based; settings: Homo sapiens, read-out: Karpas 299 cell IC50
Method: The ability of MNK inhibitors described herein to inhibit eIF4E phosphorylation at Serine 209 in Karpas 299, Human Non-Hodgkin's Ki-positive Large Cell Lymphoma cell line was tested by sandwich enzyme linked immune-absorbance assay.

[8] = Liver microsome stability, human; assay type: in vitro ADME; settings: liver microsomes; for half-life: read-out: Human liver microsomes t1/2
[9] = molecular target: T1, death-associated protein kinase-related apoptosis-inducing protein kinase 1 (DRAK1) (Homo sapiens, UniProt Q9UEE5); experiment: Off-target kinase screen DRAK1; assay type: biochemical; settings: 1 μM test compound
T1 sequence (Q9UEE5 1-414): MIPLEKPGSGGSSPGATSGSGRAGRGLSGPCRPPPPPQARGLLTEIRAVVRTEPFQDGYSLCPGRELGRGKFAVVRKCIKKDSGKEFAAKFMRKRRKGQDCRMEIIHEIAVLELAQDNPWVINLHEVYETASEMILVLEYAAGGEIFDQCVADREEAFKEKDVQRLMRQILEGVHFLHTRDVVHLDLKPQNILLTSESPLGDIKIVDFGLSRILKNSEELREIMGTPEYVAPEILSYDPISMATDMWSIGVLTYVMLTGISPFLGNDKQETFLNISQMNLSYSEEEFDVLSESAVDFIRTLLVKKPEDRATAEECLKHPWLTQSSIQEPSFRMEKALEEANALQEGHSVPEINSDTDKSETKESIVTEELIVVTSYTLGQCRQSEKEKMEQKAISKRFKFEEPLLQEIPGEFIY
From the text: as §1

[10] = Liver microsome stability, rat; assay type: in vitro ADME; settings: Rat liver microsomes (#); for microsomal CLint: read-out: CLint rodent; for half-life: read-out: Rodent liver microsomes t1/2
[11] = molecular target: T2, protein kinase G 2 (PKG2) (Homo sapiens, UniProt Q13237); experiment: Off-target kinase screen PKG2; assay type: biochemical; settings: 1 μM test compound
T2 sequence (Q13237 1-762): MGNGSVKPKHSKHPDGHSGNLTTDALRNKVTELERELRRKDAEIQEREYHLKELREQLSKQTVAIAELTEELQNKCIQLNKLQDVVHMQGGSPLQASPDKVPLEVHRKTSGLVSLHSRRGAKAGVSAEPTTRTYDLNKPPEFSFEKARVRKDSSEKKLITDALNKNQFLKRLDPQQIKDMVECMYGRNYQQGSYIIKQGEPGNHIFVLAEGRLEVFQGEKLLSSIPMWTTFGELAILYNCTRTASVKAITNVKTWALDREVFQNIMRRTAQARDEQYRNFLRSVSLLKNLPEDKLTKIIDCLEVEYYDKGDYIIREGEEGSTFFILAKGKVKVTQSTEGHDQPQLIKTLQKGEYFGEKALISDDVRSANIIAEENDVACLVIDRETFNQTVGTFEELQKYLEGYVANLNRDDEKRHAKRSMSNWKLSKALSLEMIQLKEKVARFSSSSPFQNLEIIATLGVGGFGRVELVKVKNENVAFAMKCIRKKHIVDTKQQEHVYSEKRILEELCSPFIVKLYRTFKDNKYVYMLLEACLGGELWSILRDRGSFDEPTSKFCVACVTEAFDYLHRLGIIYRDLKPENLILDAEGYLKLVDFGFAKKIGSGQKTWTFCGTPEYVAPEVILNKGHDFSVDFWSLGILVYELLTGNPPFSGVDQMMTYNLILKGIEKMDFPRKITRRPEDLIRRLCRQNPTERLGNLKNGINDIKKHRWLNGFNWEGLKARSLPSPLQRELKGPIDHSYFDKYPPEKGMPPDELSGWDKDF
From the text: as §1

[12] = Liver microsome stability, mouse; assay type: in vitro ADME; settings: Mouse liver microsomes (*); for microsomal CLint: read-out: CLint rodent; for half-life: mouse, liver microsomes, Table 11a, read-out: Rodent liver microsomes t1/2

MNK1, sequence (Q9BUB5 whole entry): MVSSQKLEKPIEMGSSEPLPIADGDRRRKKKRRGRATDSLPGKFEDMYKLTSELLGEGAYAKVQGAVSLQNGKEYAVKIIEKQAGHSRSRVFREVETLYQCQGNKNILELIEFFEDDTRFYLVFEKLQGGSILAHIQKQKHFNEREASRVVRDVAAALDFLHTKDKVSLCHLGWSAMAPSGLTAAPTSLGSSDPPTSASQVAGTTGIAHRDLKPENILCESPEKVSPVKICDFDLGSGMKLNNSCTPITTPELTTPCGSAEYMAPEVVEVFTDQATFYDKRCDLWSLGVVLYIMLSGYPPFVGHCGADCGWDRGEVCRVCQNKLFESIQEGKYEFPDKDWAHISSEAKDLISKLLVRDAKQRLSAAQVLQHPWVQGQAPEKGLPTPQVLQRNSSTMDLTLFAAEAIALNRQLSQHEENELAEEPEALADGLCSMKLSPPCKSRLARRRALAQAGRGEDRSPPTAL

Structure (SMILES) | IC50 [1] | efflux ratio at 5 μM [2] | Papp A→B at 5 μM [2] | Papp B→A at 5 μM [2] | IC50 [3] | remaining activity at 1 µM [4] | IC50 [6] | IC50 [7] | microsomal CLint [8] | half-life [8] | microsomal CLint [10] | half-life [10] | remaining activity at 1 µM [11] | U2OS cell IC50 [3] | IC50 ([5]; HEK293, 2 h) | remaining activity at 1 µM [9] | IC50 ([5]; HEK293) | microsomal CLint [12] | half-life [12] | HEK 293 cell IC50 [5]
Cc1cc(Nc2cc(N)ncn2)c(=O)n2c1C(=O)NC21CCC(O)CC1 (stereo not shown) [Compound 4ET-01-005, 6′-((6-Aminopyrimidin-4-yl)amino)-4-hydroxy-8′-methyl-2′H-spiro[cyclohexane-1,3′-imidazo[1,5-a]pyridine]-1′,5′-dione] | 9.8 nM | 2.7 | 2 nm/s | 6 nm/s | 8.2 nM | 63% |  | 26 nM | 3.6 µL/min/mg | 6.42 h |  |  | 100% |  |  | 41% | 8.2 nM | 3.53 µL/min/mg | 6.55 h | 
Cc1cc(Nc2cc(NC(=O)C3CC3)ncn2)c(=O)n2c1C(=O)NC21CCC(O)CC1 (stereo not shown) [Compound 4ET-03-015, N-(6-((4-Hydroxy-8′-methyl-1′,5′-dioxo-1′,5′-dihydro-2′H-spiro[cyclohexane-1,3′-imidazo[1,5-a]pyridin]-6′-yl)amino)pyrimidin-4-yl)cyclopropanecarboxamide] | 19.1 nM | 10 | 9 nm/s | 87 nm/s | 2.4 nM | 14% | 1.4 nM | 3 nM | 2.73 µL/min/mg | 8.45 h | 3.18 µL/min/mg | 7.27 h | 100% |  | 2.7 nM | 16% |  |  |  | 
Cc1cc(Nc2cc(NC(=O)C3CC3)ncn2)c(=O)n2c1C(=O)NC21CCCC1 [Compound 4ET-03-017, N-(6-((8′-Methyl-1′,5′-dioxo-1′,5′-dihydro-2′H-spiro[cyclopentane-1,3′-imidazo[1,5-a]pyridin]-6′-yl)amino)pyrimidin-4-yl)cyclopropanecarboxamide] |  |  | 163 nm/s | 589 nm/s | 0.4 nM | 17% |  | 1 nM |  |  |  |  | 100% |  |  | 9% | 0.9 nM |  |  | 

Further lines, with some results ahead:

IC50 [1] | efflux ratio at 5 μM [2] | Papp A→B at 5 μM [2] | Papp B→A at 5 μM [2] | IC50 [3] | remaining activity at 1 µM [4] | IC50 [6] | IC50 [7] | microsomal CLint [8] | half-life [8] | microsomal CLint [10] | half-life [10] | remaining activity at 1 µM [11] | U2OS cell IC50 [3] | Structure (SMILES) | IC50 ([5]; HEK293, 2 h) | remaining activity at 1 µM [9] | IC50 ([5]; HEK293) | microsomal CLint [12] | half-life [12] | HEK 293 cell IC50 [5]
27.9 nM | 2.2 | 26 nm/s | 56 nm/s | 6.9 nM | 100% | 2.6 nM | 33 nM | 2.17 µL/min/mg | 10.7 h | 2.7 µL/min/mg | 8.57 h | 97% |  | Cc1cc(Nc2cc(N)ncn2)c(=O)n2c1C(=O)NC21CCOCC1 [Compound 4ET-01-002, 6-((6-Aminopyrimidin-4-yl)amino)-8-methyl-2′,3′,5′,6′-tetrahydro-2H-spiro[imidazo[1,5-a]pyridine-3,4′-pyran]-1,5-dione] | 18.5 nM | 72% |  |  |  | 
61.7 nM | 30.2 | 3 nm/s | 76 nm/s | 30 nM | 81% | 2.1 nM |  | 1.25 µL/min/mg | 18.5 h |  |  | 100% |  | Cc1cc(Nc2cc(NCCNS(C)(=O)=O)ncn2)c(=O)n2c1C(=O)NC21CCCCC1 [Compound 4ET-02-004, N-(2-((6-((8′-methyl-1′,5′-dioxo-1′,5′-dihydro-2′H-spiro[cyclohexane-1,3′-imidazo[1,5-a]pyridin]-6′-yl)amino)pyrimidin-4-yl)amino)ethyl)methanesulfonamide] | 30.7 nM | 86% |  | 2.5 µL/min/mg | 9.25 h | 
20.5 nM | 3.8 | 155 nm/s | 586 nm/s | 5.1 nM |  | 1.8 nM | 6.4 nM | 0.77 µL/min/mg | 29.9 h | 4.84 µL/min/mg | 4.78 h |  |  | Cc1cc(Nc2cc(NC(=O)C(C)C)ncn2)c(=O)n2c1C(=O)NC21CCCC1 [Compound 4ET-03-005, N-(6-((8′-Methyl-1′,5′-dioxo-1′,5′-dihydro-2′H-spiro[cyclopentane-1,3′-imidazo[1,5-a]pyridin]-6′-yl)amino)pyrimidin-4-yl)isobutyramide] | 2.6 nM |  |  |  |  | 
205 nM | 18.1 | 2 nm/s | 39 nm/s |  |  | 8 nM |  |  |  |  |  |  | inactive | Cc1cc(Nc2cc(NCCNS(C)(=O)=O)ncn2)c(=O)n2c1C(=O)NC21CCCC1 [Compound 4ET-03-013, N-(2-((6-((8′-methyl-1′,5′-dioxo-1′,5′-dihydro-2′H-spiro[cyclopentane-1,3′-imidazo[1,5-a]pyridin]-6′-yl)amino)pyrimidin-4-yl)amino)ethyl)methanesulfonamide] |  |  |  |  |  | inactive
